System: 699152-130-R-J1-PDC complex spheroid viability
Assay: Anticancer human tumor 699152-130-R-J1-PDC patient-derived pancreatic carcinoma cell line growth inhibition [POLQ]
Conditions: for IC50: curve of first compound; for viability, T/C: stronger effect = lower value
Method in brief: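 Three-cell-type spheroids modelling solid tumor plus stroma served as the readout system; POL inhibitors were tested individually and in combination, concentration ranges set by clinical Cmax where known.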

[1] = second compound 0.0316 µM, first compound 0.0316 µM
[2] = second compound 0.0316 µM, first compound 0.1 µM
[3] = second compound 0.0316 µM, first compound 0.316 µM
[4] = second compound 0.0316 µM, first compound 1 µM
[5] = second compound 0.0316 µM, first compound 3.16 µM
[6] = second compound 0.0316 µM, first compound 10 µM
[7] = second compound 0.1 µM, first compound 0.0316 µM
[8] = second compound 0.1 µM, first compound 0.1 µM
[9] = second compound 0.1 µM, first compound 0.316 µM
[10] = second compound 0.1 µM, first compound 1 µM
[11] = second compound 0.1 µM, first compound 3.16 µM
[12] = second compound 0.1 µM, first compound 10 µM
[13] = second compound 0.316 µM, first compound 0.0316 µM
[14] = second compound 0.316 µM, first compound 0.1 µM
[15] = second compound 0.316 µM, first compound 0.316 µM
[16] = second compound 0.316 µM, first compound 1 µM
[17] = second compound 0.316 µM, first compound 3.16 µM
[18] = second compound 0.316 µM, first compound 10 µM
[19] = second compound 1 µM, first compound 0.0316 µM
[20] = second compound 1 µM, first compound 0.1 µM
[21] = second compound 1 µM, first compound 0.316 µM
[22] = second compound 1 µM, first compound 1 µM
[23] = second compound 1 µM, first compound 3.16 µM
[24] = second compound 1 µM, first compound 10 µM
[25] = second compound 3.16 µM, first compound 0.0316 µM
[26] = second compound 3.16 µM, first compound 0.1 µM
[27] = second compound 3.16 µM, first compound 0.316 µM
[28] = second compound 3.16 µM, first compound 1 µM
[29] = second compound 3.16 µM, first compound 3.16 µM
[30] = second compound 3.16 µM, first compound 10 µM
[31] = second compound 10 µM, first compound 0.0316 µM
[32] = second compound 10 µM, first compound 0.1 µM
[33] = second compound 10 µM, first compound 0.316 µM
[34] = second compound 10 µM, first compound 1 µM
[35] = second compound 10 µM, first compound 3.16 µM
[36] = second compound 10 µM, first compound 10 µM
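Further: spheroids exposed to agents for 7 days before viability reading.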
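Wherever viability, T/C is given: percent of DMSO vehicle control viability so 100% = vehicle and 0% = no viable signal.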

CNCc1ccc(-c2[nH]c3cc(F)cc4c3c2CCNC4=O)cc1 + Nc1ccc(C#CCN(C(=O)Cc2ncc(C(F)(F)F)cc2C(F)(F)F)c2ccc(F)cc2)nn1
IC50 (second compound 0.0316 µM): > 10 µM
IC50 (second compound 0.1 µM): > 10 µM
IC50 (second compound 0.316 µM): > 10 µM
IC50 (second compound 1 µM): > 10 µM
IC50 (second compound 3.16 µM): > 10 µM
IC50 (second compound 10 µM): > 10 µM
viability, T/C [1]: 103%
viability, T/C [2]: 98.8%
viability, T/C [3]: 95.9%
viability, T/C [4]: 115%
viability, T/C [5]: 115%
viability, T/C [6]: 123%
viability, T/C [7]: 95.8%
viability, T/C [8]: 104%
viability, T/C [9]: 100%
viability, T/C [10]: 105%
viability, T/C [11]: 113%
viability, T/C [12]: 118%
viability, T/C [13]: 85.2%
viability, T/C [14]: 109%
viability, T/C [15]: 105%
viability, T/C [16]: 102%
viability, T/C [17]: 127%
viability, T/C [18]: 132%
viability, T/C [19]: 94.9%
viability, T/C [20]: 90%
viability, T/C [21]: 100%
viability, T/C [22]: 94.6%
viability, T/C [23]: 112%
viability, T/C [24]: 132%
viability, T/C [25]: 105%
viability, T/C [26]: 93.6%
viability, T/C [27]: 109%
viability, T/C [28]: 104%
viability, T/C [29]: 105%
viability, T/C [30]: 122%
viability, T/C [31]: 99.7%
viability, T/C [32]: 104%
viability, T/C [33]: 107%
viability, T/C [34]: 107%
viability, T/C [35]: 130%
viability, T/C [36]: 120%

CNCc1ccc(-c2[nH]c3cc(F)cc4c3c2CCNC4=O)cc1 + COC1C(OC(N)=O)C(O)C(Oc2ccc3c(O)c(NC(=O)c4ccc(O)c(CC=C(C)C)c4)c(=O)oc3c2C)OC1(C)C
IC50 (second compound 0.0316 µM): > 10 µM
IC50 (second compound 0.1 µM): > 10 µM
IC50 (second compound 0.316 µM): > 10 µM
IC50 (second compound 1 µM): > 10 µM
IC50 (second compound 3.16 µM): > 10 µM
IC50 (second compound 10 µM): > 10 µM
viability, T/C [1]: 94.8%
viability, T/C [2]: 95.1%
viability, T/C [3]: 101%
viability, T/C [4]: 106%
viability, T/C [5]: 126%
viability, T/C [6]: 123%
viability, T/C [7]: 96.4%
viability, T/C [8]: 95.6%
viability, T/C [9]: 92.9%
viability, T/C [10]: 120%
viability, T/C [11]: 115%
viability, T/C [12]: 130%
viability, T/C [13]: 102%
viability, T/C [14]: 103%
viability, T/C [15]: 106%
viability, T/C [16]: 97.8%
viability, T/C [17]: 118%
viability, T/C [18]: 125%
viability, T/C [19]: 101%
viability, T/C [20]: 94.9%
viability, T/C [21]: 107%
viability, T/C [22]: 98%
viability, T/C [23]: 113%
viability, T/C [24]: 114%
viability, T/C [25]: 103%
viability, T/C [26]: 105%
viability, T/C [27]: 93.8%
viability, T/C [28]: 98.2%
viability, T/C [29]: 133%
viability, T/C [30]: 93.6%
viability, T/C [31]: 102%
viability, T/C [32]: 88.3%
viability, T/C [33]: 107%
viability, T/C [34]: 101%
viability, T/C [35]: 125%
viability, T/C [36]: 108%

O=c1[nH]cc(F)c(=O)[nH]1 + COC1C(OC(N)=O)C(O)C(Oc2ccc3c(O)c(NC(=O)c4ccc(O)c(CC=C(C)C)c4)c(=O)oc3c2C)OC1(C)C
IC50 (second compound 0.0316 µM): > 10 µM
IC50 (second compound 0.1 µM): > 10 µM
IC50 (second compound 0.316 µM): > 10 µM
IC50 (second compound 1 µM): > 10 µM
IC50 (second compound 3.16 µM): > 10 µM
IC50 (second compound 10 µM): > 10 µM
viability, T/C [1]: 101%
viability, T/C [2]: 92.8%
viability, T/C [3]: 108%
viability, T/C [4]: 108%
viability, T/C [5]: 91.3%
viability, T/C [6]: 75.4%
viability, T/C [7]: 109%
viability, T/C [8]: 113%
viability, T/C [9]: 88.5%
viability, T/C [10]: 97.2%
viability, T/C [11]: 93.6%
viability, T/C [12]: 68.7%
viability, T/C [13]: 92.6%
viability, T/C [14]: 99.6%
viability, T/C [15]: 99.8%
viability, T/C [16]: 95.4%
viability, T/C [17]: 86%
viability, T/C [18]: 65.9%
viability, T/C [19]: 104%
viability, T/C [20]: 101%
viability, T/C [21]: 91%
viability, T/C [22]: 105%
viability, T/C [23]: 98.5%
viability, T/C [24]: 76.8%
viability, T/C [25]: 102%
viability, T/C [26]: 93.2%
viability, T/C [27]: 91.2%
viability, T/C [28]: 88.4%
viability, T/C [29]: 92.5%
viability, T/C [30]: 72.8%
viability, T/C [31]: 106%
viability, T/C [32]: 108%
viability, T/C [33]: 101%
viability, T/C [34]: 95.9%
viability, T/C [35]: 88.2%
viability, T/C [36]: 73%

Reference: PubChem BioAssay AID1963835 (Molecular Pharmacology Branch, DTP, NCI, 2024)
